Data: patent US20160355530A1, “HEPATITIS C INHIBITORS AND USES THEREOF” (AbbVie Inc., priority 2010, published 2016)
Read-outs that look alike come from different tables or passages of the source.

Tests used:
[1] = test system: chimeric replicon with genotype 2b NS5B; test: microbe, parasite or virus in culture; type: cell-based, HCV genotype 2b; details: Hepatitis C virus, read-out: 2b chimera 5% FBS EC50
[2] = test system: chimeric replicon with genotype 3a NS5B; test: microbe, parasite or virus in culture; type: cell-based, HCV genotype 3a; details: Hepatitis C virus, read-out: 3a chimera 5% FBS EC50
[3] = test system: HCV 1b-BB7 subgenomic replicon; test: microbe, parasite or virus in culture; type: cell-based, HCV genotype 1b; details: Hepatitis C virus, stable replicon
[4] = test system: HCV 1a-H77 transient subgenomic replicon in Huh-7 derived cell line; test: microbe, parasite or virus in culture; type: cell-based, HCV genotype 1a; details: Hepatitis C virus, Huh-7; transient replicon, 5% FBS; read-out: Transient Replicon 1a H77 5% FBS EC50
In short: (§1)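 Subgenomic replicon RNA (no Neo gene) electroporated into Huh-7-derived cells, plated at 5×10^3 cells/well; a 4 h plate gauged transfection efficiency. Cells exposed to 3-fold compound dilutions (0.5% DMSO) for 4 days at 37° C, then lysed for luciferase readout; EC50 calculated.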

[5] = test system: HCV 1a-H77-C316Y transient subgenomic replicon in Huh-7 derived cell line; test: microbe, parasite or virus in culture; type: cell-based, HCV genotype 1a; details: for EC50: Hepatitis C virus, Huh-7, read-out: Transient Replicon 1a H77-C316Y 5% FBS EC50; for Transient Replicon Fold Resistance C316Y/1a: ratio of transient replicon EC50s, C316Y / 1a H77
In short: as §1

[6] = test system: HCV NS5B polymerase 1a-H77-C316Y; test: biochemical; parameters: species or system HCV genotype 1a; details: ratio of enzyme IC50s, 1a H77-C316Y / 1a H77
In short: (§2)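 Recombinant NS5B (residues 1–570, His-tagged, E. coli-expressed) copied 5 nM of a 2.1 kb HCV 1b negative-strand 3′-end RNA template with 20 μM CTP, 20 μM ATP and 0.284 μM [3H]UTP for 3 h at 30 °C. Spermine-precipitated RNA was filter-captured and counted, and IC50 was fitted by nonlinear regression.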

[7] = molecular target: T1, HCV NS5B polymerase 1a-H77-C316Y (Hepatitis C virus genotype 1a, UniProt P27958, C2736Y); test: biochemical; parameters: species or system HCV genotype 1a
T1 construct: six-histidine tag; made in house; host or cells: E. coli
T1 sequence (P27958 2421-2990 C2736Y): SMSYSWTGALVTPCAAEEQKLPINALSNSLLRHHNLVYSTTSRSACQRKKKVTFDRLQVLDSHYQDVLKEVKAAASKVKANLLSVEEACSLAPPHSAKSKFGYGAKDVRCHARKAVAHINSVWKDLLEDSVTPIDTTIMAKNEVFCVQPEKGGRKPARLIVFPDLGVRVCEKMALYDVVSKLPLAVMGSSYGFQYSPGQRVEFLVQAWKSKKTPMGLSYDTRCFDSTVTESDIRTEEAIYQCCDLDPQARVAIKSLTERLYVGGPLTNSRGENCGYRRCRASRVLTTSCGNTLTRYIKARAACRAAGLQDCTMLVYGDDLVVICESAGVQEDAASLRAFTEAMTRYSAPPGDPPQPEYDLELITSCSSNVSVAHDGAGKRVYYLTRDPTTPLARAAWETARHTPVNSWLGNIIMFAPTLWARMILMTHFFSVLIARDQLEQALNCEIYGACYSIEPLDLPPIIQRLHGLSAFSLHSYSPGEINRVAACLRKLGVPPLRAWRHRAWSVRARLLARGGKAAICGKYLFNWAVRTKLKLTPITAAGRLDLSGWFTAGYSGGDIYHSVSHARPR
In short: as §2

[8] = molecular target: T2, HCV NS5B polymerase 1a-H77 (Hepatitis C virus genotype 1a, UniProt P27958); test: biochemical; parameters: species or system HCV genotype 1a; details: enzyme, strain 1a H77; read-out: HCV Polymerase Strain 1a H77 IC50
T2 construct: six-histidine tag; made in house; host or cells: E. coli
T2 sequence (P27958 2421-2990): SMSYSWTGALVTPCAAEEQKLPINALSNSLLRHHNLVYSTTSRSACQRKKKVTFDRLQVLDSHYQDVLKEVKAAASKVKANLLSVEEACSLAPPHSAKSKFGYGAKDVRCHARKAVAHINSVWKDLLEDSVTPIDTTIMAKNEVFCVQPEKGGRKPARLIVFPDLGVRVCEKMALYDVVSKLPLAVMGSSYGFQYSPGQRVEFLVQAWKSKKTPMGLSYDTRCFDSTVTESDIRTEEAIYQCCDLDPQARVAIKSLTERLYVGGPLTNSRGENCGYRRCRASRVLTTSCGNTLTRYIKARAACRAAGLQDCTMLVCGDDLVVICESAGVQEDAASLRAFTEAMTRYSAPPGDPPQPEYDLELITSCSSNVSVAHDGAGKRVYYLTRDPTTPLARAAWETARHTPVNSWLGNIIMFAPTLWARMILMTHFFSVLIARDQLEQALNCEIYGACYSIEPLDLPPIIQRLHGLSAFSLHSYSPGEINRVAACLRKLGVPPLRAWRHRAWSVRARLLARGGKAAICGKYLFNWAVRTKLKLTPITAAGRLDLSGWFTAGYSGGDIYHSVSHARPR
In short: as §2

[9] = test system: chimeric replicon with 2a-J6CF-derived NS5B; test: microbe, parasite or virus in culture; type: cell-based, HCV genotype 2a; details: Hepatitis C virus, read-out: 2a chimera 5% FBS EC50
[10] = test system: chimeric replicon with genotype 4a NS5B; test: microbe, parasite or virus in culture; type: cell-based, HCV genotype 4a; details: Hepatitis C virus, read-out: 4a chimera 5% FBS EC50
[11] = test system: HCV 1a-H77 subgenomic replicon; test: microbe, parasite or virus in culture; type: cell-based, HCV genotype 1a; details: Hepatitis C virus, stable replicon
[12] = molecular target: T3, HCV NS5B polymerase 1b BK strain (Hepatitis C virus genotype 1b, UniProt P26663); test: HCV NS5B polymerase enzymatic inhibition assay, strain 1b BK; type: biochemical; details: enzyme, strain 1b BK; read-out: HCV Polymerase Strain 1b BK IC50
T3 construct: six-histidine tag; made in house; host or cells: E. coli
T3 sequence (P26663 2420-2989): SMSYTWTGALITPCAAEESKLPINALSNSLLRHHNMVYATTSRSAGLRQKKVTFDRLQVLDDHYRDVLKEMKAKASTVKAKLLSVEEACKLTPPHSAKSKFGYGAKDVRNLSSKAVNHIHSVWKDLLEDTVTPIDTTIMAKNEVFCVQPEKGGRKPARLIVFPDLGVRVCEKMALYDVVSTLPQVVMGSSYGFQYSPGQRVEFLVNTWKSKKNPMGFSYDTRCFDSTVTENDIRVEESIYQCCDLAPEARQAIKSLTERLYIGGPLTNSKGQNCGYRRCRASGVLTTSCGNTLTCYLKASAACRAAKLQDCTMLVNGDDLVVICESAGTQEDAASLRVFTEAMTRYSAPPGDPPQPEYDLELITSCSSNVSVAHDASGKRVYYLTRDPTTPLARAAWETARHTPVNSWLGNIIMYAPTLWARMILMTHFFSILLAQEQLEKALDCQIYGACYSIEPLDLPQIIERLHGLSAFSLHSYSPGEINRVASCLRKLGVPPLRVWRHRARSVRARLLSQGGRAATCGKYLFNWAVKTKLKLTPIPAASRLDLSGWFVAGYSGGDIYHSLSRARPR
In short: as §2

[13] = strain 1b BB7, 5% FBS + 40% human plasma, read-out: 1b BB7 5% FBS + 40% Human Plasma EC50
[14] = strain 1b BB7, 5% FBS, no human plasma, read-out: 1b BB7 5% FBS EC50
[15] = strain 1b BB7, 5% FBS, read-out: 1b BB7 5% FBS EC50
[16] = 5% FBS, absence of human plasma, read-out: Stable Replicon 1a H77 5% FBS EC50
[17] = strain 1a H77, 5% FBS + 40% human plasma, read-out: 1a H77 5% FBS + 40% Human Plasma EC50
[18] = strain 1a H77, 5% FBS, no human plasma, read-out: 1a H77 5% FBS EC50
[19] = strain 1a H77, 5% FBS, read-out: 1a H77 5% FBS EC50

Structure (SMILES) | EC50 [1] | EC50 [2] | EC50 [3, 13] | EC50 [3, 14] | EC50 [3, 15] | EC50 [4] | EC50 [5] | Transient Replicon Fold Resistance C316Y/1a [5] | C316Y/1a Fold Resistance [6] | IC50 [7] | IC50 [8] | EC50 [9] | EC50 [10] | EC50 [11, 16] | EC50 [11, 17] | EC50 [11, 18] | EC50 [11, 19] | IC50 [12]
CC(C)(O)C(O)CCN(c1cc2oc(-c3ccc(F)cc3)c(-c3ncc[nH]3)c2cc1C1CC1)S(C)(=O)=O (stereo not drawn) [Example 84, N-[5-cyclopropyl-2-(4-fluorophenyl)-3-(1H-imidazol-2-yl)-1-benzofuran-6-yl]-N-(3,4-dihydroxy-4-methylpentyl)methanesulfonamide] | 30.9 nM | 15.1 nM | 146 nM | 14.1 nM | 14.1 nM | 25.4 nM | 184 nM | 7 fold | 12 fold | 41 nM | 3.5 nM | 103 nM | 142 nM | 14.9 nM | 218 nM | 14.9 nM | 14.9 nM | 19 nM
CNS(=O)(=O)CCCN(c1cc2oc(-c3ccc(F)cc3)c(-c3ncc[nH]3)c2cc1C1CC1)S(C)(=O)=O [Example 86, 3-{[5-cyclopropyl-2-(4-fluorophenyl)-3-(1H-imidazol-2-yl)-1-benzofuran-6-yl](methylsulfonyl)amino}-N-methylpropane-1-sulfonamide] | 137 nM | 11.5 nM | 41 nM | 6.7 nM | 6.7 nM | 2.8 nM | 92.1 nM | 33 fold | 11 fold | 56 nM | 5 nM | 64.2 nM | 108 nM | 12.3 nM | 86 nM | 12.3 nM | 12.3 nM | 18 nM
CS(=O)(=O)CCN(c1cc2oc(-c3ccc(F)cc3)c(-c3ncc[nH]3)c2cc1C1CC1)S(C)(=O)=O [Example 87, N-[5-cyclopropyl-2-(4-fluorophenyl)-3-(1H-imidazol-2-yl)-1-benzofuran-6-yl]-N-[2-(methylsulfonyl)ethyl]methanesulfonamide] | 84.9 nM | 3.2 nM | 57 nM | 4.9 nM | 4.9 nM | 6.1 nM | 155 nM | 25 fold | 26 fold | 156 nM | 6 nM | 64.5 nM | 48.4 nM | 7.6 nM | 65 nM | 7.6 nM | 7.6 nM | 23 nM
CS(=O)(=O)N(CCCCCO)c1cc2oc(-c3ccc(F)cc3)c(-c3ncc[nH]3)c2cc1C1CC1 [Example 88, N-[5-cyclopropyl-2-(4-fluorophenyl)-3-(1H-imidazol-2-yl)-1-benzofuran-6-yl]-N-(5-hydroxypentyl)methanesulfonamide] | 24.5 nM | 3.2 nM | 108 nM | 4.9 nM | 4.9 nM | 1.2 nM | 38.2 nM | 32 fold | 12 fold | 46 nM | 4 nM | 25.3 nM | 33.9 nM | 4.1 nM | 119 nM | 4.1 nM | 4.1 nM | 9 nM
CS(=O)(=O)N(CCCS(=O)(=O)c1ccccc1)c1cc2oc(-c3ccc(F)cc3)c(-c3ncc[nH]3)c2cc1C1CC1 [Example 90, N-[5-cyclopropyl-2-(4-fluorophenyl)-3-(1H-imidazol-2-yl)-1-benzofuran-6-yl]-N-[3-(phenylsulfonyl)propyl]methanesulfonamide] | 68 nM | 12.8 nM | 48 nM | 6 nM | 6 nM | 2.7 nM | 65.8 nM | 24 fold | 12 fold | 42 nM | 3.5 nM | 47.5 nM | 27.5 nM | 10.2 nM | 93 nM | 10.2 nM | 10.2 nM | 10 nM
CS(=O)(=O)N(CCCCC(N)=O)c1cc2oc(-c3ccc(F)cc3)c(-c3ncc[nH]3)c2cc1C1CC1 [Example 91, 5-{[5-cyclopropyl-2-(4-fluorophenyl)-3-(1H-imidazol-2-yl)-1-benzofuran-6-yl](methylsulfonyl)amino}pentanamide] | 99.4 nM | 8 nM | 34 nM | 4.9 nM | 4.9 nM | 5.6 nM | 121 nM | 22 fold | 15 fold | 80 nM | 5.3 nM | 85.8 nM | 88.8 nM | 6.3 nM | 32 nM | 6.3 nM | 6.34 nM | 26 nM
CS(=O)(=O)N(CCCCC(=O)O)c1cc2oc(-c3ccc(F)cc3)c(-c3ncc[nH]3)c2cc1C1CC1 [Example 92, 5-{[5-cyclopropyl-2-(4-fluorophenyl)-3-(1H-imidazol-2-yl)-1-benzofuran-6-yl](methylsulfonyl)amino}pentanoic acid] | 352 nM | 43 nM | 142 nM | 25.9 nM | 25.9 nM | 19.4 nM | 480 nM | 25 fold | 9 fold | 43 nM | 4.9 nM | 409 nM | 283 nM | 21.4 nM | 175 nM | 21.4 nM | 21.4 nM | 6 nM
CCS(=O)(=O)CCN(c1cc2oc(-c3ccc(F)cc3)c(-c3ncc[nH]3)c2cc1C1CC1)S(C)(=O)=O [Example 96, N-[5-cyclopropyl-2-(4-fluorophenyl)-3-(1H-imidazol-2-yl)-1-benzofuran-6-yl]-N-[2-(ethylsulfonyl)ethyl]methanesulfonamide] | 126 nM | 5.9 nM | 37 nM | 4 nM | 4 nM | 1.1 nM | 80.6 nM | 73 fold | 6 fold | 58 nM | 8.9 nM | 43.7 nM | 41.9 nM | 6.3 nM | 58 nM | 6.2 nM | 6.3 nM | 34 nM
CC(C)(O)CCCN(c1cc2oc(-c3ccc(F)cc3)c(-c3ncc[nH]3)c2cc1C1CC1)S(C)(=O)=O [Example 99, N-[5-cyclopropyl-2-(4-fluorophenyl)-3-(1H-imidazol-2-yl)-1-benzofuran-6-yl]-N-(4-hydroxy-4-methylpentyl)methanesulfonamide] | 17.3 nM | 3.8 nM | 105 nM | 5.4 nM | 5.4 nM | 7.6 nM | 85.4 nM | 11 fold | 13 fold | 58 nM | 4.5 nM | 29.6 nM | 31.4 nM | 7.7 nM | 126 nM | 7.7 nM | 7.7 nM | 11 nM
